Results from patent EP2511272B1, “Synthetic analogues of abscisic acid with anti-inflammatory and insulin release stimulation effects on human cells” (Universita' degli Studi di Genova, priority 2011, dated 2012).
Where two headings read alike, the source gives them in different places.

Legend:
human granulocytes [1] = assay: Production of reactive oxygen species (ROS), H2DCFDA fluorescence; format: cell-based
Experimental: Human granulocitytes, after ON incubation in complete DMEM/F12, were resuspended at 1x10^7/ml in HBSS and spiked with the fluorescent probe (10 µM), specific for ROS determination, 2',7'-dichlorodihydrofluorescein diacetate (H2DCFDA), for 30 min at 37 °C.
They were subsequently washed twice with HBSS and resuspended at 1x10^6 cells/ml in HBSS and then were kept at room temperature for approximately 30 minutes.
The cells (100 µl) were added to a 96-well plate pre-loaded with ABA 1 µM, either alone or with increasing concentrations of the compound prepared according to example 1.
The increase in fluorescence was measured at 10-sec intervals for 10 minutes, with Fluostar OPTIMA fluorometer (λexc: 485; λemis: 520).
(§1) The experiment was carried out three times in triplicate.
Human granulocutes stimulated with 1 µM ABA become activated, and produce quite large amounts of reactive oxygen species (ROS) (Bruzzone, jbc 2007). The results were expressed as the average of the results obtained from three independent experiments, from which the background value, obtained from the control, had been subtracted. TABLE 4. Inhibition of ROS production, in human granulocytes stimulated with ABA, by compound prepared according to example 1.

human monocytes [2] = assay: Inhibition of ABA-induced MCP-1 production in monocytes (ELISA); format: cell-based; settings: 6 h
Experimental: Monocytes, 25 x 10^6/Petri in complete RPMI, were incubated for 6 h with 100 nM ABA either alone, or in the presence of compound prepared according to example 1, at a concentration of 1 µM. At the end of the incubation, the substrate was centrifuged at 17,000xg for 5 minutes and the release of MCP-1 (monocyte chemotactic protein-1) was quantitated by means of kit MC=-1 Elisa kit (GE Healthcare), in accordance with the instructions supplied by the manufacturer.
(§2) The cells were lysed in 200 µl of deionized water in order to quantitate total proteins by the Bradford method, after thre preliminary generation of a reference standard curve, obtained with different concentrations of bovine serum albumin. The spectrophotometric measurements were carried out at wavelength of 595 nm.
(§3) The experiment was carried out three times in sextuplicate.
The results were expressed as the average of the results from three independent experiments, as referred to control value. […] TABLE 8. Inhibition of MCP-1 production in human monocytes by compound prepared according to example 1

human monocytes [3] = assay: Inhibition of ABA-induced PGE2 production in monocytes (EIA); format: cell-based; settings: 6 h
Experimental: Monocytes, 25 x 10^6/Petri in complete RPMI, were incubated for 6 h with 100 nM ABA either alone, or in the presence of compound prepared according to example 1, at a concentration of 1 µM. At the end of the incubation, the substrate was centrifuged at 17,000xg for 5 minutes and the concentration of PGE2 was quantitated by using the kit: PGE2 monoclonal EIA kit (Cayman Chemical Co.), following the instructions suppled by the manufacturer.
as §2, with “method (Bradford, M. M., 1976),” for “method,”
as §3
The results were expressed as the average of the results from three independent experiments, as referred to control value. […] TABLE 7. Inhibition of PGE2 production, in human monocytes stimulated with ABA, by compound prepared according to example 1

human granulocytes [4] = assay: Inhibition of ABA-induced phagocytosis of fluorescent beads; format: cell-based
Experimental: Human granulocytes, after ON incubation in complete DMEM/F12, were resuspended at 1x10^6 cells/100 µl in HBSS.
For the experiment, fluorescent polystyrene (carboxylate-modified polystyrene) beads were used, of 1 µm of diameter (Sigma-Aldrich) A volume of 100 µl of cellular suspension was subdivided into eppendorf, in which a 10 minutes long preincubation was carried out with 20 µM ABA, either alone, or together with increasing concentrations of compound prepared according to example 1.
After the end of the preincubation, the beads were added for 5, 10 and 30 minutes. For each experimental point, 2.5 x 10^5 beads were used.
At the end of the incubations, the cells were collected by centrifugation (200xg for 10 seconds), were washed with 1 ml of HBSS at 0 °C and were centrifuged once again at 200xg for 10 seconds. The supernatant was discarded and the cells were resuspended in 350 µl of HBSS and added to 96-well plates of white colour (100 µl per well).
The increase in fluorescence was measured with Fluostar OPTIMA fluorometer (λexc: 485; λemis: 520).
as §1
Human grnulocytes were preincubated for 10 minutes at 20 °C with 20 µM ABA, either alone or in the presence of compound prepared according to example 1, at various concentrations. In order to evaluate the phagocytic capability of granulocytes, fluorescent beads were added and, after 15 and 30 minutes, the fluorescence absorbed by the cells was determined as described in Materials and Methods The results were expressed as the average of the results obtained from three independent experiments, from which the background value, obtained from the control, had been subtracted (TABLE 5). TABLE 5. Inhibition of phagocitosis, in human granulocytes stimulated with ABA, by compound prepared according to example 1.

INS-1 cells = assay: Insulin release (secretion index) by INS-1 cells, scr or LANCL-2 silenced; format: cell-based, rat; settings: 30 minutes
Experimental: Insulinoma cells of INS-1 rat were transfected with LANCL-2 silencing RNAs LANCL-2 (siRNAL2) or with nonsense RNA (scr) and were incubated in 5 mM glucose (LG) oppure 25 mM glucose (HG), in the absence or in the presence of 100 nM ABA or of compound according to example 1 (100 nM). Insulin release is expressed as the secretion index (SI) relative to insulin release in LG. As regards the experimental procedure, with the exception of use of compound according to example 1, reference can be made to the following paper, in which the properties which are the subject-matter of the present example were investigated for only ABA. Sturla L, Fresia C, Guida L, Grozio A, Vigliarolo T, Mannino E, Millo E, Bagnasco L, Bruzzone S, De Flora A, Zocchi E. Binding of abscisic acid to human LANCL2. Biochem Biophys Res Commun. 2011 Nov 18;415(2):390-5. TABLE 12. Effect of ABA and of compound from example 1 on insulin release (SI) by […] at 30 minutes.

[5] = Homo sapiens, Monocyte, ABA 100 nM + compound 1 µM
[6] = LANCL2 siRNA, HG (25 mM glucose), substance 100 nM
[7] = LANCL2 siRNA, LG (5 mM glucose), substance 100 nM
[8] = SCR, HG (25 mM glucose), substance 100 nM
[9] = SCR, LG (5 mM glucose), substance 100 nM

## CC(=C/C(=O)O)/C=C/C1(O)C(C)(C)CC(=O)C2OC21C (stereo not drawn) [Example 1, 2'α,3'α-dihydro-2'α,3'α-epoxyabscisic acid]
Human granulocytes [1]; ABA 1 µM + compound 0.01 nM
  Increase in fluorescence (delta OD)±SD: 1325±26.5 delta OD
Human granulocytes [1]; ABA 1 µM + compound 0.5 nM
  Increase in fluorescence (delta OD)±SD: 680±13.6 delta OD
Human granulocytes [1]; ABA 1 µM + compound 1 nM
  Increase in fluorescence (delta OD)±SD: 371±1.9 delta OD
Human granulocytes [1]; ABA 1 µM + compound 1 µM
  Increase in fluorescence (delta OD)±SD: 46±0.2 delta OD
Human granulocytes [1]; Homo sapiens, ROS production, ABA 1 µM, compound 0.01 nM
  inhibition at 10 pM: 0%
Human granulocytes [1]; Homo sapiens, ROS production, ABA 1 µM, compound 0.5 nM
  inhibition at 0.0005 µM: 45%
Human granulocytes [1]; Homo sapiens, ROS production, ABA 1 µM, compound 1 nM
  inhibition at 0.001 µM: 70%
Human granulocytes [1]; Homo sapiens, ROS production, ABA 1 µM, compound 1 µM
  inhibition at 1 µM: 96%
Human granulocytes [1]; Homo sapiens, inhibiting the production of ROS, ABA 1 µM
  IC50: ~0.5 nM
Human monocytes [2]; ABA 100 nM + compound 1 µM
  MCP-1 relatively to control ± SD: 0.8±0.2
Human monocytes [2]; [5]
  inhibition at 1 µM: 100%
Human monocytes [3]; ABA 100 nM + compound 1 µM
  Relative amount of PGE2 as referred to control ± SD: 1,0±0,1
Human monocytes [3]; [5]
  inhibition at 1 µM: 100%
Human granulocytes [4]; ABA 20 µM + compound 0.5 nM, 15 min
  Increase in fluorescence ±SD (@ 15 min): 210±2
Human granulocytes [4]; ABA 20 µM + compound 0.5 nM, 30 min
  Increase in fluorescence ±SD (@ 30 min): 1423±3
Human granulocytes [4]; ABA 20 µM + compound 10 nM, 15 min
  Increase in fluorescence ±SD (@ 15 min): 148±2
Human granulocytes [4]; ABA 20 µM + compound 10 nM, 30 min
  Increase in fluorescence ±SD (@ 30 min): 515±10
Human granulocytes [4]; ABA 20 µM + compound 1 µM, 15 min
  Increase in fluorescence ±SD (@ 15 min): 17
Human granulocytes [4]; ABA 20 µM + compound 1 µM, 30 min
  Increase in fluorescence ±SD (@ 30 min): 0
Human granulocytes [4]; Homo sapiens, 0.25 h, ABA 20 µM + compound 0.5 nM, 15 min, read-out: Inhibition % (@ 15 min)
  inhibition at 0.0005 µM: 77%
Human granulocytes [4]; Homo sapiens, 0.25 h, ABA 20 µM + compound 10 nM, 15 min, read-out: Inhibition % (@ 15 min)
  inhibition at 0.01 µM: 84%
Human granulocytes [4]; Homo sapiens, 0.25 h, ABA 20 µM + compound 1 µM, 15 min, read-out: Inhibition % (@ 15 min)
  inhibition at 1 µM: 98%
Human granulocytes [4]; Homo sapiens, 0.5 h, ABA 20 µM + compound 0.5 nM, 30 min, read-out: Inhibition % (@ 30 min)
  inhibition at 0.0005 µM: 43%
Human granulocytes [4]; Homo sapiens, 0.5 h, ABA 20 µM + compound 10 nM, 30 min, read-out: Inhibition % (@ 30 min)
  inhibition at 0.01 µM: 80%
Human granulocytes [4]; Homo sapiens, 0.5 h, ABA 20 µM + compound 1 µM, 30 min, read-out: Inhibition % (@ 30 min)
  inhibition at 1 µM: 100%
Human granulocytes [4]; Homo sapiens, phagocytosis induced by 20 µM ABA
  IC50: ~0.5 nM
INS-1 cells; [6]
  insulin release, secretion index (SI) relative to LG: 3
INS-1 cells; LANCL2 siRNA, HG, ABA 100 nM + compound 100 nM together
  insulin release, secretion index (SI) relative to LG: 8
INS-1 cells; [7]
  insulin release, secretion index (SI) relative to LG: 2
INS-1 cells; LANCL2 siRNA, LG, ABA 100 nM + compound 100 nM together
  insulin release, secretion index (SI) relative to LG: 5
INS-1 cells; [8]
  insulin release, secretion index (SI) relative to LG: 6
INS-1 cells; SCR, HG, ABA 100 nM + compound 100 nM together
  insulin release, secretion index (SI) relative to LG: 12
INS-1 cells; [9]
  insulin release, secretion index (SI) relative to LG: 2.5
INS-1 cells; SCR, LG, ABA 100 nM + compound 100 nM together
  insulin release, secretion index (SI) relative to LG: 8.5

## CC1=CC(=O)CC(C)(C)C1(O)/C=C/C(C)=C\C(=O)O (racemic) [ABA, (2Z,4E)-5-(1-hydroxy-2,6,6-trimethyl-4-oxo-2-cyclohexen-1-yl)-3-methyl-2,4-pentadienoic acid, reference compound]
Human granulocytes [1]; ABA 1 µM alone
  Increase in fluorescence (delta OD)±SD: 1238±8.7 delta OD
Human monocytes [2]; ABA 100 nM alone
  MCP-1 relatively to control ± SD: 2±0.2
Human monocytes [3]; ABA 100 nM alone
  Relative amount of PGE2 as referred to control ± SD: 2,2±0,2
Human granulocytes [4]; ABA 20 µM alone, 15 min
  Increase in fluorescence ±SD (@ 15 min): 909±47
Human granulocytes [4]; ABA 20 µM alone, 30 min
  Increase in fluorescence ±SD (@ 30 min): 2476±50
INS-1 cells; [6]
  insulin release, secretion index (SI) relative to LG: 1.7
INS-1 cells; [7]
  insulin release, secretion index (SI) relative to LG: 1
INS-1 cells; [8]
  insulin release, secretion index (SI) relative to LG: 6.4
INS-1 cells; [9]
  insulin release, secretion index (SI) relative to LG: 1.7
